Measurements as given in patent US20070037752A1, “Novel alanyl-amino peptidase inhibitors for functionally influencing different cells and treating immunological, inflammatory, neuronal, and other diseases” (priority 2003, published 2007).
Like-named read-outs stand apart in the source and are kept apart here.

Columns and labels:
female Balb/c mice [1] = experiment: Dextran sulfate-induced colitis, disease score; format: in vivo; details: 10 μg single inhibitor i.p., three days from day 5, score on day 7; insignificant
Excerpt: Therapeutic Effect of the Combined Inhibition of the Alanyl Aminopeptidases and of Enzymes Having an Analogous Effect as Well as of Dipeptidyl Peptidase IV and of Enzymes Having an Analogous Effect on the Dextran Sulfate-Induced Colitis in Mice (Animal Model of Chronic Inflammatory Intestinal Diseases)
An inflammation relating predominantly to the colon (equivalent to the disease of human Colitis ulcerosa) was induced by an administration of 3% sodium dextran sulfate dissolved in the drinking water of female Balb/c mice having an age of 8 weeks. […] The peptidase inhibitors (or phosphate-buffered saline as a placebo) were administered intraperitoneally from day 5 on for three successive days. The degree of the disease was determined in accordance with an acknowledged evaluation system (score). The following parameters were considered when determining the score: Consistency of the excrements (solid=0 points (pts.); pasty=2 pts.; liquid/like diarrhea=4 pts.); detection of blood in the excrements (no blood=0 pts.; occult blood=2 pts.; evident=4 pts.); loss of weight (0-5%=0 pts.; 5 to 10%=1 pts.; 10-15%=2 pts.; 15-20%=3 pts.; >20%=4 pts.). Healthy animals have a score value of 0 pts.; the maximum value are 12 pts. From 10 pts. on, the disease is lethal. In the course of the disease, the score value increased due to the change of the excrement parameters. […]

female Balb/c mice [2] = experiment: Ovalbumine-induced asthma bronchiale, pulmonal function (EF50) and eosinophilia; format: in vivo; details: i.p. 0.1 mg of each inhibitor, days 28-35; FIG. 3 A
Method: Therapeutic effect of the combined inhibition of alanyl aminopeptidases and of enzymes having an analogous effect as well as of dipeptidyl peptidase IV and of enzymes having an analogous effect on the ovalbumine-induced asthma bronchiale ib mice (animal model of human asthma bronchiale).
Female Balb/c mice were sensitized for the antigen ovalbumine capable of inducing asthma bronchiale by an intreperitoneal administration of 10 μg ovalbumine on the days 0, 14 and 21. On day 27/28, the animals received a boostering dose of ovalbumine by inhalation [vD3]. After an intreperitoneal administration of the peptidase inhibitors on the days 28-35, there was effected an intranasal ovalbumine challenge on day 35, as well as a check of the allergic premature reaction via the pulmonal function. There were measured: the average expiratory flux (EF50), the tidal volume, the respiration rate and the minute volume as well as the number of eosinophilic granulocytes in the bronchoalveolar lavage.
8 to 10 animals were used per experimental group. By way of example, in FIG. 3 A, there is summarized the effect of the peptidase inhibitors on the reduction of the EF50 value. […] Group E represents animals which were not sensitized by OVA, but which were subjected—beyond that—all procedures to which the animal groups A to D were subjected.

[3] = target: alanyl aminopeptidases (APN) (Homo sapiens, UniProt P15144); experiment: Inhibition of alanyl aminopeptidase enzymatic activity, fluorogenic substrate (Ala)2-rhodamine 110; format: biochemical
Sequence of alanyl aminopeptidases (APN) (P15144 whole entry, species assumed): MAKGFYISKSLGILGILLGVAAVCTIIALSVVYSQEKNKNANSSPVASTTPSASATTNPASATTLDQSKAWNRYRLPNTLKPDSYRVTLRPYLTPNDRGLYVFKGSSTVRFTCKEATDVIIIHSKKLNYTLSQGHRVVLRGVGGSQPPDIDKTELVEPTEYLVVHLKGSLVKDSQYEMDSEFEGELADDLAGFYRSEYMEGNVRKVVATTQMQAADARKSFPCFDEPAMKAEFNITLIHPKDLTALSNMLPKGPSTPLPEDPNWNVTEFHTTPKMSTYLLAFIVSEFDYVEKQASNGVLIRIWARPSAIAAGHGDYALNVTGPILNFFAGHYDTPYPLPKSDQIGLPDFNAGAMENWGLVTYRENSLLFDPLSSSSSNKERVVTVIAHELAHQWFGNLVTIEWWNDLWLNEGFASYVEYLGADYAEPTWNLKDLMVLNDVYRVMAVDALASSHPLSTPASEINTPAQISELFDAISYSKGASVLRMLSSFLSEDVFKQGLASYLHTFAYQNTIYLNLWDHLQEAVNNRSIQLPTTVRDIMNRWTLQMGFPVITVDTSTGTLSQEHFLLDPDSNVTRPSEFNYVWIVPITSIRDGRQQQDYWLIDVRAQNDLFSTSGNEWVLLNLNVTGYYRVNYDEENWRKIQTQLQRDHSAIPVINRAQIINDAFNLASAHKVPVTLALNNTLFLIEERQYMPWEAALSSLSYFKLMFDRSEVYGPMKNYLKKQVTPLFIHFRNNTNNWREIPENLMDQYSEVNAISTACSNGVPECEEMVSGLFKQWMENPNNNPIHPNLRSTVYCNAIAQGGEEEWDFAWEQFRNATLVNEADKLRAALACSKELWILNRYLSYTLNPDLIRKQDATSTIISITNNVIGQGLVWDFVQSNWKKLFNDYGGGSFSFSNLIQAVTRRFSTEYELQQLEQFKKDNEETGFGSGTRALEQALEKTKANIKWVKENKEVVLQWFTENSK
Method: The inhibition characteristics measured are referred to as IC-50 values or ID50 values (the latter marked with “*”) for said enzyme. The enzymatic activity was determined by means of the fluorogenic substrate/product (Ala)2-rhodamine 110.

[4] = Table 4, unstarred values, read-out: IC50APN
[5] = Table 3, unstarred values, read-out: IC50APN
[6] = Table 3, starred values = ID50, read-out: ID50 APN (values marked with *)
[7] = Table 9, starred values = ID50, read-out: ID50 APN (values marked with *)
[8] = Table 9, unstarred values, read-out: IC50APN
[9] = Table 8, unstarred values, read-out: IC50APN
[10] = Table 4, starred values = ID50, read-out: ID50 APN (values marked with *)

N[C@@H](CCCCNC(=O)OCc1ccc([N+](=O)[O-])cc1)C(=O)N1CCCC1 [Lys[Z(NO2)]pyrrolidide]
reduction of the heaviness of the disease (colitis score) (female Balb/c mice [1]): −12.3%
effect on the reduction of the EF50 value (pulmonal function) (female Balb/c mice [2]): showed a therapeutic effect

Cc1ccc(/C=N/NC(=O)c2ccc(O)cc2)o1 [A4.072]
IC50 [3, 4]: 23.4 µM

COc1ccc(N(C(C)C(=O)N/N=C/c2ccco2)S(C)(=O)=O)cc1 (stereo not drawn) [A4.136]
IC50 [3, 4]: 47 µM

Cn1c(=O)[nH]c2nnc(-c3cccs3)nc2c1=O [A3.157]
IC50 [3, 5]: 26.1 µM

CCOC(=O)c1c(-c2ccccc2)c[nH]c1N [A3.336]
IC50 [3, 6]: 169 µM

CC(=O)Oc1ccc2c(=O)c(-c3cnn(-c4ccccc4)c3)c(C(F)(F)F)oc2c1OC(C)=O [A9.122]
IC50 [3, 7]: 134 µM

Cc1ccc(/C=N/NC(=O)c2cccc(Cl)c2)o1 [A3.039]
IC50 [3, 5]: 10.5 µM

NC(=O)C1CCN(C(=O)/C(=C/c2ccco2)NC(=O)c2ccccc2)CC1 [A9.081]
IC50 [3, 8]: 30.5 µM

O=C(N/N=C/C=C\c1ccco1)c1ccco1 [A4.036]
IC50 [3, 4]: 16 µM

COc1ccc(/C=N/NC(=O)C2=C(C)Nc3ccccc3S2)cc1Cn1nc(C)c(Br)c1C [A9.007]
IC50 [3, 8]: 4.8 µM

Cc1ccccc1NC(=O)C1C(c2cccs2)C(C#N)=C(SCC(=O)Nc2ccc(Br)cc2)NC1(C)O (stereo not drawn) [A3.204]
IC50 [3, 5]: 33.9 µM

CCOC(=O)c1cc(-c2ccc(/C=C3\C(=O)N(CCCO)C(=O)C(C#N)=C3C)o2)ccc1Cl [A9.094]
IC50 [3, 8]: 41 µM

CC(C)COc1ccc(C(=O)N/C(=C\c2ccco2)C(=O)N2CCOCC2)cc1 [A3.057]
IC50 [3, 5]: 13.1 µM

Cc1ccc(/C=N/NC(=O)c2cccc(Cl)c2)o1 [A13.005]
IC50 ([3]; Table 13, read-out: IC50APN): 10.5 µM

CC(C)c1cc(C(=O)N/N=C/c2ccco2)[nH]n1 [A3.080]
IC50 [3, 5]: 16.6 µM

CCCCC[C@H](CC(=O)NO)C(=O)N[C@H](C(=O)N1CCC[C@H]1CO)C(C)C [Actinonine]
reduction of the heaviness of the disease (colitis score) (female Balb/c mice [1]): −16.5%
effect on the reduction of the EF50 value (pulmonal function) (female Balb/c mice [2]): showed a therapeutic effect

O=C(N/N=C/c1ccco1)c1cc(-c2ccccc2Cl)n[nH]1 [A3.303]
IC50 [3, 6]: 75.8 µM

COC(=O)c1ccccc1-c1ccc(/C=C2\C(=O)N(C)C(=O)C(C#N)=C2C)o1 [A9.071]
IC50 [3, 8]: 28.1 µM

O=C(O)CC1S/C(=N/N=C/c2ccco2)NC1=O (stereo not drawn) [A8.031]
IC50 ([3]; Table 8, starred values = ID50, read-out: ID50 APN (values marked with *)): 48.1 µM

Cc1cccc(C(=O)Nc2cccc(C(=O)N/N=C/c3ccc(C)o3)c2)c1 [A3.216b]
IC50 [3, 5]: 36.2 µM

CC(C)C/C=N/NC(=O)c1ccc([N+](=O)[O-])cc1Cl [A4.035]
IC50 [3, 4]: 15.6 µM

CN1C/C(=C/c2ccco2)C(=O)/C(=C/c2ccco2)C1 [A3.098]
IC50 [3, 5]: 19.2 µM

CCOC(=O)C(NC(=O)c1ccccc1)(N1CCC(Cc2ccccc2)CC1)C(F)(F)F (stereo not drawn) [A12.049]
IC50 ([3]; Table 12, read-out: IC50APN): 29.9 µM

O=C(N/N=C/c1cc(Br)ccc1OC(=O)c1ccc([N+](=O)[O-])cc1)/C(=C\c1ccc2c(c1)OCO2)NC(=O)c1ccccc1 [A4.146]
IC50 [3, 4]: 54.2 µM

O=c1cc(CSc2nnc(-c3ccco3)c(-c3ccco3)n2)c2ccccc2[nH]1 [A3.289]
IC50 [3, 6]: 65.1 µM

Cc1cc(=O)[nH]c(N/N=C/c2ccco2)n1 [A3.088]
IC50 [3, 5]: 18.2 µM

O=C(/C=C/c1ccco1)Nc1ccc(OCC(=O)N2CCOCC2)cc1 [A9.056]
IC50 [3, 8]: 21.9 µM

Cc1ccc(C(=O)N/C(=C\c2ccco2)C(=O)N2CC3CC(C2)c2cccc(=O)n2C3)cc1 (stereo not drawn) [A12.019]
IC50 ([3]; Table 12, read-out: IC50APN): 11 µM

Cn1c(=O)[nH]c2nnc(-c3cccs3)nc2c1=O [A8.023]
IC50 [3, 9]: 22.6 µM

COc1ccc(CCCC(=O)N/N=C/c2ccco2)cc1 [A3.141]
IC50 [3, 5]: 23.4 µM

Cc1c(Cl)cccc1NC(=O)CCC(=O)N/N=C/c1ccco1 [A3.220]
IC50 [3, 5]: 36.6 µM

CC(/C=N/NC(=O)C(O)c1ccccc1)=C\c1ccco1 (stereo not drawn) [A4.118]
IC50 [3, 4]: 36.3 µM

O=C(N/N=C/c1cccc([N+](=O)[O-])c1)c1ccco1 [A3.247]
IC50 [3, 5]: 45.4 µM

Cc1cc(C(=O)N/N=C/c2ccco2)[nH]n1 [A4.139]
IC50 [3, 4]: 48.2 µM

O=C(CNC(=O)c1ccccc1O)N/N=C/c1ccco1 [A4.173]
IC50 [3, 10]: 98.8 µM

CC(/C=N/NC(=O)c1ccco1)=C\c1ccco1 [A4.088]
IC50 [3, 4]: 27.5 µM

O=C(Cc1cccs1)N/N=C\c1ccco1 [A3.329]
IC50 [3, 5]: 143 µM

O=C(N/N=C\c1ccco1)c1cnccn1 [A3.185]
IC50 [3, 5]: 30.1 µM

N/C(=N/OS(=O)(=O)c1ccc(C(F)(F)F)cc1)C1CSCCS1 (stereo not drawn) [A6.006]
IC50 ([3]; Table 6, read-out: IC50APN): 13.4 µM

O=c1[nH]c(/C=C/c2ccco2)nc2ccccc12 [A9.035]
IC50 [3, 8]: 14.6 µM

Cc1ccc(C(=O)N/C(=C/c2ccco2)C(=O)N(C)C)cc1 [A12.052]
IC50 ([3]; Table 12, read-out: IC50APN): 32.5 µM

CCOc1ccc(C(=O)N/N=C(/C)c2ccco2)cc1 [A3.352]
IC50 [3, 6]: 451 µM

CC(C)c1cc(C(=O)N/N=C/c2ccco2)[nH]n1 [A4.040]
IC50 [3, 4]: 16.6 µM

O=C(N/N=C/c1ccco1)c1cccc(NC(=O)c2ccc(F)cc2)c1 [A3.156]
IC50 [3, 5]: 25.9 µM

CCCOC(=O)c1cc(-c2ccc(/C=C3\C(=O)N(CCO)C(=O)C(C#N)=C3C)o2)ccc1Cl [A13.023]
IC50 ([3]; Table 13, read-out: IC50APN): 54 µM

O=C(N/N=C\c1ccco1)c1ccc(Br)cc1 [A3.148]
IC50 [3, 5]: 24.5 µM

COc1ccc(/C(C)=N/NC(=O)CNC(=O)/C=C\c2ccco2)cc1OC [A4.053]
IC50 [3, 4]: 19.9 µM

Cc1cc(C)c(C)c(C(=O)COC(=O)c2ccc(-n3c(C)ccc3C)cc2)c1C [A3.014]
IC50 [3, 5]: 4.5 µM

Cc1ccc(/C=N/NC(=O)COc2ccc(Cl)cc2)o1 [A4.038]
IC50 [3, 4]: 16 µM

C/C(=N\NC(=O)COc1ccc(C)cc1[N+](=O)[O-])c1ccco1 [A3.351]
IC50 [3, 6]: 422 µM

CCOC(=O)c1c(C)oc2c1c1c(c3ccccc32)OCN(C2CCS(=O)(=O)C2)C1 (stereo not drawn) [A9.057]
IC50 [3, 8]: 22.3 µM

C/C(=N\NC(=O)c1cc(-c2ccco2)n[nH]1)c1ccco1 [A4.181]
IC50 [3, 10]: 161 µM

CC1=C(C#N)C(O)=NC(=O)/C1=C/c1ccc(-c2ccc(Cl)cc2Cl)o1 [A9.085]
IC50 [3, 8]: 32.4 µM

O=C(O)c1ccc(-n2c(/C=C/c3ccco3)nc3ccccc3c2=O)cc1 [A3.116]
IC50 [3, 5]: 21.2 µM

CCc1ccc(OCC(=O)N/N=C\c2ccco2)c([N+](=O)[O-])c1 [A4.077]
IC50 [3, 4]: 25.1 µM

COc1ccc(OCC(=O)N/N=C/c2cc(Br)c(O)c(O)c2Br)c(Br)c1 [A4.033]
IC50 [3, 4]: 15 µM

Cc1cccc(C)c1Nc1c(-c2ccccc2NC(=O)Nc2ccccc2)nc2c(C(=O)NCc3ccc(F)cc3)cccn12 [A8.015]
IC50 [3, 9]: 14.9 µM

Cc1cc(C)cc(OCC(=O)N/N=C/c2ccco2)c1 [A3.140]
IC50 [3, 5]: 23.4 µM

COc1cccc(/C=N/NC(=O)c2ccn(C)n2)c1O [A4.177]
IC50 [3, 4]: 142 µM

C/C(=N\NC(=O)c1cc(-c2ccccc2)n[nH]1)c1ccco1 [A4.149]
IC50 [3, 4]: 58.3 µM

COC(=O)C1=C(N)N2C(=O)CSC2=C(C(=O)OC(C)C)C1 [A9.012]
IC50 [3, 8]: 5.9 µM

COc1cc(Br)cc(Br)c1OCC(=O)N/N=C/c1cc(Br)c(O)c(O)c1Br [A4.024]
IC50 [3, 4]: 13.2 µM

O=C1C(Cc2ccc3[nH]ccc3c2)NC(=S)N1c1ccccc1 (stereo not drawn) [A8.016]
IC50 [3, 9]: 14.9 µM

COc1ccc(/C=N/NC(=O)C2=C(C)Nc3ccccc3S2)cc1Cn1nc(C)c(Br)c1C [A3.016]
IC50 [3, 5]: 4.8 µM

C=CCN1C(=O)C(C#N)=C(C)/C(=C\c2ccc(-c3cc(C)c(C)cc3[N+](=O)[O-])o2)C1=O [A13.015]
IC50 ([3]; Table 13, read-out: IC50APN): 29.3 µM

O=C1Nc2cc(C(=O)N3CCN(c4ccccc4)CC3)ccc2NC1CSCc1ccccc1F (stereo not drawn) [A12.065]
IC50 ([3]; Table 12, read-out: IC50APN): 61.5 µM

Cc1ccc(C(=O)N/C(=C/c2ccco2)C(=O)N(C)C)cc1 [A3.198]
IC50 [3, 5]: 32.5 µM

Cc1ccc(Cn2c(SCCC(=O)O)nc3c2c(=O)[nH]c(=O)n3C)cc1 [A9.100]
IC50 [3, 7]: 53.2 µM

COc1ccc(C(=O)Nc2ccc(S(=O)(=O)N3CCCCC3)cc2)cc1 [A6.001]
IC50 ([3]; Table 6, read-out: IC50APN): 8.4 µM

NCCCCCC(=O)C[N+](=O)[O-] [A11.025]
IC50 ([3]; Table 11, read-out: IC50APN): 33.2 µM
